“Also recorded” adds a separate entry of the source.
Key:
[1] = biological target: T1, mutant huntingtin aggregates (HDex1Q68 fused to ECFP/EYFP) (Homo sapiens, UniProt P42858, INS38QQQQQQQQQQQQQQQQQQQQQQQQQQQQQQQQQQQQQQQQQQQQQQQ); assay: Cellular FRET aggregation assay in stable Tet-off CHO-AA8/Q68-Q68 cells; type: cell-based; conditions: for apparent inhibitory effects due to toxic effects (concentration): FRET decrease attributed to toxicity
Procedure: To determine the potential of possibly inhibiting substances the inventors performed dose response assays at concentrations ranging from 1, to 100 μM.
Screening was performed in 96-well plates (greiner bio-one) containing 1×10^4 cells/well of the stably inducible tet off cell lines htt-mut (six-fold) and CHO-AA8 line (three fold) for background control. Simultaneously, each compound was checked for its potential autofluorescence.
Two stable inducible CHO Tet off cell lines were constructed expressing simultaneously wildtype (CHO-AA8/Q17-Q17) or mutant (CHO-AA8/Q68-Q68) huntingtin fragments fused to ECFP or EYFP (FIG. 1B) after withdrawal of doxicycline (dox). Basal and induced expression levels of huntingtin fusion proteins were examined by Western blot analysis at different time intervals (4, 24, 48, and 72 hours). […] For the screening approach stable inducible huntingtin expressing cell lines were seeded in 96-well plates and the fluorescence intensities were measured with a fluorescence plate reader.
The test compounds were mixed in a fresh doxicycline-free medium with 2% DMSO and added to the Tet off cell lines two to three hours after seeding and attachment of the cells.
(§1) The FRET-measurement was performed 48 h later.
Subsequently, a second screening round was performed at concentration range 1, 3, and 10 μM, respectively.

CHO-AA8/Q68-Q68 cells = assay: Propidium iodide exclusion assay (viability, cell number) following the FRET assay; conditions: after 48 h; for Viability (effect in words) / Viability ↓ (concentration): propidium iodide exclusion
Procedure: CHO-AA8/Q68-Q68, CHO-AA8/Q17-Q17 and CHO-AA8 cells were seeded in 96 well plates. After attachment of the cells, the medium was exchanged for Ham's F 12 medium containing 10% doxicycline free FBS and 2% DMSO supplemented with compounds. After 48 h the fluorescence intensities of cells were measured using a fluorescence plate reader (Fluoroscan Ascent, Thermo Scietific) and filtersets for CFP (ex 444 nm, em 485 nm), YFP(ex 485 nm, em 538 nm) and FRET (ex 444 nm, em 538 nm). After correction of background fluorescence (subtraction of CHO-AA8 cell fluorescence intensities) the FRET signal was determined using the method: FA=(FRET-a*YFP)/CFP with a=0.11 (Zal u. Gascoigne 2004, Zal et al. 2002). In following, the viability of cells was measured using a propidium iodide exclusion assay (Sattler et al. 1997). PI was added to the cells at final concentration of 0.15 mg/ml. After 15 minutes the PI fluorescence intensity was measured (ex 530 nm, em 620 nm). The cells were then lysed with 0.5% Triton X-100 (TX100) and the PI fluorescence intensity was measured again. Viability of cells was calculated as viability=1−(PIbefore TX100/PIafter TX100).
as §1

[2] = biological target: T2, GST-tagged mutant htt-exon-1 with 51 polyglutamines (GST-HDexQ51) (Homo sapiens, UniProt P42858, INS38QQQQQQQQQQQQQQQQQQQQQQQQQQQQQQ); assay: Cell free filter retardation assay; type: biochemical; conditions: tested 1-200 μM
T2 construct: GST-tagged mutant htt-exon-1 with 51 polyglutamines (GST-HDexQ51); GST (N, cleaved yes)
Procedure: To determine if the cellular environment is a prerequisite for the inhibitory effect of the isolated natural compounds or if the compounds directly interfere with the aggregation process, the inventors performed a cell free filter retardation assay (Scherzinger et al., 1997).
Briefly, GST-tagged mutant htt-exon-1 with 51 polyglutamines (GST-HDexQ51) is incubated with the compounds and factor Xa to remove the GST tag for proper aggregation (16 h, 23° C.). The aggregated peptides are denaturized by boiling in SDS buffer (10 min, 99° C.) and filtered though a cellulose acetate membrane. The insoluble aggregates are retained at the membrane and detected with an anti-huntingtin antibody.
The isolated natural compounds, PGL-135 and congo red were tested in a concentration range of 1-200 μM. […] (Data not shown). Concentration of less than 50 μM congo red produced an enhancement of the aggregation process.

[3] = biological target: T1, mutant huntingtin aggregates (HDex1Q68 fused to ECFP/EYFP); assay: Cellular FRET aggregation assay in stable Tet-off CHO-AA8/Q68-Q68 cells; type: cell-based; conditions: half-maximal inhibition of FRET signal, dose response 0.7-50 μM
[4] = system: mutant huntingtin aggregates; assay: Filter retardation assay on lysates of treated cells (immunodetection); type: cell-based; conditions: increasing concentrations
Procedure: (C) Immunodetection of mutant huntingtin aggregates upon PGL-135 treatment of cells using a filter retardation assay.
The filter retardation assay was accomplished as described (Scherzinger et al., 1999). Cells were lysed (100 mM NaCl, 5 mM MgCl2, 0.5% NP-40, 1 mM EDTA, 50 mM Tris-HCl, protease inhibitors, 25 U/mL benzonase, pH 8.8), denatured 5 min at 95° C. with 2% SDS/50 mM DTT and cell lysates equal 2 μg protein were filtered through a 0.2 μm cellulose acetate membrane (Schleicher & Schuell) using a dot blot unit. The immunodetection was performed using the same antibody detection system as described above. Quantitative determination of the relative aggregate amount was evaluated with the Lumi Imager F1 System and Lumi Analyst 3.0 (Boehringer Mannheim, Germany).
The coherence between decreasing FRET values and less polyglutamine aggregates in PGL-135 treated cells was further validated by fluorescence microscopy imaging (data not shown) and a filter retardation assay (Heiser et al., 2000) (FIG. 2C).

T2 sequence (P42858 with tags, fused parts or gaps with the stated changes): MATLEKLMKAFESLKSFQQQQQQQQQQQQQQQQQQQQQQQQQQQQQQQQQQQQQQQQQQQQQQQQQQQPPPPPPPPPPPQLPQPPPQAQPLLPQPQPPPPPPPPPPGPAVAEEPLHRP
T1 sequence (P42858 1-88, stated change not applied): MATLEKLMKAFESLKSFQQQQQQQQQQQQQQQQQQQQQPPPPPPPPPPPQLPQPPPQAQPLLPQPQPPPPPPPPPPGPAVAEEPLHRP

Compound | FRET-signal (effect in words) ([1]; 48 h, 2% DMSO) | Cell number (effect in words) (CHO-AA8/Q68-Q68 cells) | Viability (effect in words) (CHO-AA8/Q68-Q68 cells) | Cell number ↓ (concentration) (CHO-AA8/Q68-Q68 cells) | further results
O=C(O)c1cc(/N=N/c2ccc(-c3ccc(/N=N/c4ccc(O)c(C(=O)O)c4)cc3)cc2)ccc1O [chrysamine G] | no effect | no effect | no effect |  | FRET-signal (effect in words) ([1]; 48 h, 2% DMSO, listed as Chrysamine G): no effects
COc1ccc2c(c1)c(CC(=O)O)c(C)n2C(=O)c1ccc(Cl)cc1 [Indomethacin] |  |  |  | ↓ ≧1.25 μM | FRET-signal ↓ (concentration from which aggregation is reduced) ([1]; 48 h, 2% DMSO): ↓ ≧1.25 μM; Viability ↓ (concentration) (CHO-AA8/Q68-Q68 cells): ↓ 10 μM
NCCSSCCN [Cystamine] | no effect | no effect | no effect |  | FRET-signal (effect in words) ([1]; 48 h, 2% DMSO, listed as cystamine dihydrochloride): no effects
Nc1c(/N=N/c2ccc(-c3ccc(/N=N/c4cc(S(=O)(=O)O)c5ccccc5c4N)cc3)cc2)cc(S(=O)(=O)O)c2ccccc12 [congo red] |  |  | no effect | ↓ ≧125 μM | FRET-signal ↓ (concentration from which aggregation is reduced) ([1]; 48 h, 2% DMSO): ↓ ≧30 μM; FRET-signal ↓ (concentration from which aggregation is reduced) ([1]; 48 h, 2% DMSO, listed as Congo red): > 30 µM; enhancement of the aggregation process (concentration) ([2]; 16 h, 23° C.): less than 50 μM; inhibited the formation of aggregates (concentration) ([2]; 16 h, 23° C.): > 50 µM
CC(Cc1ccc(O)c(O)c1)C(C)Cc1ccc(O)c(O)c1 (stereo not shown) [NDGA] | no effect |  | no effect | ↓ 500 nM | 
O=C(O)Cc1ccccc1Nc1c(Cl)cccc1Cl [Diclofenac] | no effect |  | no effect | ↓ ≧250 nM | FRET-signal (effect in words) ([1]; 48 h, 2% DMSO, listed as diclofenac): no effects
COC1=C2C[C@@H](C)C[C@H](OC)[C@H](O)[C@@H](C)/C=C(\C)[C@H](OC(N)=O)[C@@H](OC)/C=C\C=C(/C)C(=O)NC(=CC1=O)C2=O [geldanamycin] |  | no effect | no effect |  | 
Nc1nc2ccc(OC(F)(F)F)cc2s1 [Riluzole] |  | no effect | no effect |  | 
CN(CC(=O)O)C(=N)N [Creatine] | no effect | no effect | no effect |  | FRET-signal (effect in words) ([1]; 48 h, 2% DMSO, listed as creatin): no effects
C=C1[C@@H]2CC[C@@]3(C)[C@H](c4ccoc4)OC(=O)C[C@]13O[C@H]1CC(=O)C(C)(C)[C@H](CC(=O)OC)[C@]12C [S2, angolensic acid methylester] |  |  |  |  | EC50 [3]: 3000 nM
half-Chrysamine G | no effect | no effect | no effect |  | FRET-signal ↓ (concentration from which aggregation is reduced) ([1]; 48 h, 2% DMSO): > 2.5 µM
OC[C@H]1O[C@H](O[C@H]2O[C@H](CO)[C@@H](O)[C@H](O)[C@H]2O)[C@H](O)[C@@H](O)[C@@H]1O [Trehalose] | no effect | no effect | no effect |  | FRET-signal (effect in words) ([1]; 48 h, 2% DMSO, listed as threhalose): no effects
C[C@@H](N)[C@H]1CC[C@H](C(=O)Nc2ccncc2)CC1 [Y-27632] | no effect | no effect | no effect |  | apparent inhibitory effects due to toxic effects (concentration) [1]: > 12.5 µM
COC1=C(OC)C(=O)C(C/C=C(\C)CC/C=C(\C)CC/C=C(\C)CC/C=C(\C)CC/C=C(\C)CC/C=C(\C)CC/C=C(\C)CC/C=C(\C)CC/C=C(\C)CCC=C(C)C)=C(C)C1=O [coenzyme Q10] | no effect | no effect | no effect |  | 
O=C(CCCCCN1C(=O)c2cccc3cccc(c23)C1=O)NO [Scriptaid] |  | decreased |  | ↓ ≧25 μM | FRET-signal ↑ (concentration from which aggregation is increased) ([1]; 48 h, 2% DMSO): ↑ ≧25 μM; Viability ↓ (concentration) (CHO-AA8/Q68-Q68 cells): ↓ ≧25 μM
Cc1cc(O)c(C)c2sc(N)nc12 [PGL-135] | decrease | no effect | not affected; also recorded: without affecting the cell viability; also recorded: no effect |  | mutant huntingtin aggregates in filter retardation assay [4]: significant decrease; inhibition of aggregate formation (in words) [2]: Only congo red reliably inhibited the formation of aggregates
C=CCNC1=C2C[C@@H](C)C[C@H](OC)[C@H](O)[C@@H](C)/C=C(\C)[C@H](OC(N)=O)[C@@H](OC)/C=C\C=C(/C)C(=O)NC(=CC1=O)C2=O [17-AAG] |  |  |  | ↓ ≧0.3 μM | FRET-signal ↓ (concentration from which aggregation is reduced) ([1]; 48 h, 2% DMSO): ↓ ≧0.3 μM; apparent inhibitory effects due to toxic effects (concentration) [1]: > 0.7 µM; Viability ↓ (concentration) (CHO-AA8/Q68-Q68 cells): ↓ ≧0.3 μM
O=C([O-])c1ccccc1O.[Na+] [sodiumsalicylat] | no effect |  | no effect |  | FRET-signal (effect in words) ([1]; 48 h, 2% DMSO, listed as sodiumsalyicylate): no effects

Source: US20100298280A1, “Compounds for the Modulation of Huntingtin Aggregation, Methods and Means for Identifying Such Compounds” (priority 2007, published 2010)
